Test results from patent US20090186811A1, “Y2 Selective Receptor Agonists for Therapeutic Interventions” (priority 2004, published 2009).
Positions of bridges follow the written chain, without caps; N, C: chain ends. Non-standard residues stand in square brackets, D forms with d. Residues, ends and D or L forms follow the SMILES beside them. Aoc = NCCCCCCCC(=O)O

Key:
rats = conditions: rat; cited from earlier work
human Y1 receptor [1] = target: T1, human Y1 receptor (Homo sapiens, UniProt P25929); experiment: Human Y1 receptor affinity assay (competition binding)
T1 construct: expressed in transfected cells; host or cells: COS-7
T1 sequence (P25929 1-384): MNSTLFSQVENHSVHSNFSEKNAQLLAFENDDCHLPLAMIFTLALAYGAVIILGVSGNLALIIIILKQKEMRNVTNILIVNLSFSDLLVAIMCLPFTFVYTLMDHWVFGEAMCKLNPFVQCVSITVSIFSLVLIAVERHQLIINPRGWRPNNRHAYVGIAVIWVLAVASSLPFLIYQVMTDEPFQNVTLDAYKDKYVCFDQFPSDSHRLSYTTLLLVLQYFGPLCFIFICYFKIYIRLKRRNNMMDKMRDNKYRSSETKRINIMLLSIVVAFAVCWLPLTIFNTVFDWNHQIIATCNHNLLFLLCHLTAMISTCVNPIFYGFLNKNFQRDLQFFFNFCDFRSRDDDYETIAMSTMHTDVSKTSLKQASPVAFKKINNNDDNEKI
Protocol: (§1) Transfected COS-7 cells are transferred to culture plates one day after transfection at a density of 40×10^3 cells per well aiming at 5-8% binding of the radioactive ligand. […] Determinations are made in duplicate. […] EC50 values were calculated using a standard pharmacological data handling software, Prism 3.0 (graphPad Sofware, San Diego, USA).

human Y5 receptor [2] = target: T2, human Y5 receptor (Homo sapiens, UniProt Q15761); experiment: Human Y5 receptor potency assay (inositol phosphate turnover); type: cell-based
T2 construct: expressed in transfected cells; host or cells: COS-7
Protocol: (§2) Potency of the test compounds on the human Y2 receptor is determined by performing dose-response experiments in COS-7 cells transiently transfected with the human Y2 receptor as well as a promiscuous G protein, Gqi5 which ensures that the Y2 receptor couples through a Gq pathway leading to an increase in inositol phosphate turnover.
(§3) Cells are washed twice in buffer, 20 mM HEPES, pH 7.4, supplemented with 140 mM NaCl, 5 mM KCl, 1 mM MgSO4, 1 mM CaCl2, 10 mM glucose, 0.05% (w/v) bovine serum; and are incubated in 0.5 ml buffer supplemented with 10 mM LiCl at 37 C for 30 min. After stimulation with various concentrations of peptide for 45 min at 37 C, cells are extracted with 10% ice-cold perchloric acid followed by incubation on ice for 30 min. The resulting supernatants are neutralized with KOH in HEPES buffer, and the generated [3H]-inositol phosphate are purified on Bio-Rad AG 1-X8 anion-exchange resin and counted in a beta counter. Determinations are made in duplicates. EC50 values were calculated using a standard pharmacological data handling software, Prism 3.0 (graphPad Sofware, San Diego, USA).
Protocol as for the Y2 potency assay, except that human Y5-transformed COS-7 cells are used

human Y5 receptor [3] = target: T2, human Y5 receptor; experiment: Human Y5 receptor affinity assay (competition binding)
Protocol: as §1

human Y4 receptor [4] = target: T3, human Y4 receptor (Homo sapiens, UniProt P50391); experiment: Human Y4 receptor affinity assay (competition binding)
T3 construct: expressed in transfected cells; host or cells: COS-7
Protocol: as §1

human Y1 receptor [5] = target: T1, human Y1 receptor; experiment: Human Y1 receptor potency assay (inositol phosphate turnover); type: cell-based
Protocol: as §2, §3
Protocol as for the Y2 potency assay, except that human Y1-transformed COS-7 cells are used.

human Y2 receptor [6] = target: T4, human Y2 receptor (Homo sapiens, UniProt P49146); experiment: Human Y2 receptor affinity assay (competition binding)
T4 construct: expressed in transfected cells; host or cells: COS-7
T4 sequence (P49146 1-381): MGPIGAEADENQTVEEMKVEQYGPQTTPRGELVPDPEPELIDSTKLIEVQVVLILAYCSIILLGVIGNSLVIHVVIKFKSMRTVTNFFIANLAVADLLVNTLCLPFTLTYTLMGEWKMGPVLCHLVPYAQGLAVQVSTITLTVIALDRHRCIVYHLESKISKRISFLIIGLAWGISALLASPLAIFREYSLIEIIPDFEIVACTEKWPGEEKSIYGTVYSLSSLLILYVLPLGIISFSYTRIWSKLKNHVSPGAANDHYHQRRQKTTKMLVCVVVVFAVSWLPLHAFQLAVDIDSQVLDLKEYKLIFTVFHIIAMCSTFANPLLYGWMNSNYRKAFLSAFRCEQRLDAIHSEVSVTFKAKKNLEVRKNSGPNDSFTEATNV
Protocol: as §1

human Y4 receptor [7] = target: T3, human Y4 receptor; experiment: Human Y4 receptor potency assay (inositol phosphate turnover); type: cell-based
Protocol: as §2, §3
Protocol as for the Y2 potency assay, except that human Y4-transformed COS-7 cells are used.

human Y2 receptor [8] = target: T4, human Y2 receptor; experiment: Human Y2 receptor potency assay (inositol phosphate turnover); type: cell-based; conditions: Y2 EC50, COS-7 cells with human Y2 and Gqi5, inositol phosphate turnover; Table 2
Protocol: as §2, §3

T3 sequence (P50391 whole entry): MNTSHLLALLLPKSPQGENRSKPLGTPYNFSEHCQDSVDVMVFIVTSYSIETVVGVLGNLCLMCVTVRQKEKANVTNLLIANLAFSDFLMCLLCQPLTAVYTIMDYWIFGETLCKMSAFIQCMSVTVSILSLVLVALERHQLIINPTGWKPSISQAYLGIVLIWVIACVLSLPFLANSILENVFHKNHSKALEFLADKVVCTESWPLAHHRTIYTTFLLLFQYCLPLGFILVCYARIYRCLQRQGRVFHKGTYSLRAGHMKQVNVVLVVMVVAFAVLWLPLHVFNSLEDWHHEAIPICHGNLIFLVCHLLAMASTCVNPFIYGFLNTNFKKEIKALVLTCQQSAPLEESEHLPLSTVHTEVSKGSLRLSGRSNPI
T2 sequence (Q15761 whole entry): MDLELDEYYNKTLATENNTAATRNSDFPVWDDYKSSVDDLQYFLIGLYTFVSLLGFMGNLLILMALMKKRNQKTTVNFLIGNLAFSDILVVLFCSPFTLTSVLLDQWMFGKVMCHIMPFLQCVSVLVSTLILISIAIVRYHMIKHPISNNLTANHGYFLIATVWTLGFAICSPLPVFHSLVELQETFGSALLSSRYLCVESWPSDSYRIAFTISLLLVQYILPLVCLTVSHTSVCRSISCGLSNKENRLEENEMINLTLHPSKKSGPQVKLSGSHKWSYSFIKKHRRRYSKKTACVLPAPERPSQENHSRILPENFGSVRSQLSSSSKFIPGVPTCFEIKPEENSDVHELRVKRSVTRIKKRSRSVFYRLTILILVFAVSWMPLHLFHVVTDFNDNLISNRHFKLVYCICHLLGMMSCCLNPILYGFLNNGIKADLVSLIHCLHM

Compound: [Ahx5-24, gamma-Glu2-eps-Lys30]NPY
- blood pressure increase in vivo (rats): not to induce blood pressure increases

Compound: CC[C@H](C)[C@@H]1NC(=O)[C@@H](NC(=O)[C@@H](N)Cc2ccc(O)cc2)CSSC[C@H](C(=O)N[C@@H](CC(C)C)C(=O)N[C@@H](CC(N)=O)C(=O)N[C@@H](CC(C)C)C(=O)N[C@H](C(=O)N[C@H](C(=O)N[C@@H](CCCNC(=N)N)C(=O)N[C@@H](CCC(N)=O)C(=O)N[C@@H](CCCNC(=N)N)C(=O)N[C@@H](Cc2ccc(O)cc2)C(N)=O)[C@@H](C)O)C(C)C)NC(=O)[C@H](Cc2c[nH]cn2)NC(=O)[C@H](CCCNC(=N)N)NC(=O)CCCCCCCNC(=O)[C@H](CCCCN)NC1=O [SEQ ID NO: 16, [Cys2,Aoc5-24,D-Cys27]PYY] (H-YCIK[Aoc]RH[dC]LNLVTRQRY-NH2; disulfide 2-8; N-terminus assumed)
- IC50 (human Y1 receptor [1]): > 1000 nM
- EC50 (human Y5 receptor [2]): > 1000 nM
- stimulation of the Y5 receptor (human Y5 receptor [2]; at a concentration of 1 μM): stimulates neither
- IC50 (human Y5 receptor [3]): > 1000 nM
- IC50 (human Y4 receptor [4]): 267 nM
- EC50 (human Y1 receptor [5]): > 1000 nM
- stimulation of the Y1 receptor (human Y1 receptor [5]; at 1 μM): does not even at 1 μM stimulate
- IC50 (human Y2 receptor [6]): 0.87 nM
- EC50 (human Y4 receptor [7]): > 1000 nM
- stimulation of the Y4 receptor (human Y4 receptor [7]; at a concentration of 1 μM): stimulates neither
- EC50 (human Y2 receptor [8]): 3.7 nM

Compound: CC(C)C[C@H](NC(=O)[C@H](Cc1ccc(O)cc1)NC(=O)[C@H](Cc1c[nH]cn1)NC(=O)[C@H](CCCNC(=N)N)NC(=O)[C@H](CCCCN)NC(=O)[C@H](CCCCN)NC(=O)[C@H](CCCCN)NC(=O)[C@H](CCCCN)NC(=O)[C@H](CCCCN)NC(=O)[C@@H](N)CCCCN)C(=O)N[C@@H](CC(N)=O)C(=O)N[C@@H](CC(C)C)C(=O)N[C@H](C(=O)N[C@H](C(=O)N[C@@H](CCCNC(=N)N)C(=O)N[C@@H](CCC(N)=O)C(=O)N[C@@H](CCCNC(=N)N)C(=O)N[C@@H](Cc1ccc(O)cc1)C(N)=O)[C@@H](C)O)C(C)C [SEQ ID NO: 11, Lys-Lys-Lys-Lys-Lys-Lys-PYY25-36]
- EC50 (human Y5 receptor [2]): > 1000 nM

Compound: CC[C@H](C)[C@H](NC(=O)[C@H](Cc1ccc(O)cc1)NC(=O)[C@H](CCCNC(=N)N)NC(=O)[C@H](CCCNC(=N)N)NC(=O)[C@H](CC(C)C)NC(=O)[C@H](CC(=O)O)NC(=O)[C@H](C)NC(=O)[C@H](C)NC(=O)[C@H](Cc1ccc(O)cc1)NC(=O)[C@H](CCC(N)=O)NC(=O)[C@H](C)NC(=O)[C@H](CCSC)NC(=O)[C@H](CCC(N)=O)NC(=O)[C@H](CCC(=O)O)NC(=O)[C@@H]1CCCN1C(=O)[C@@H](NC(=O)[C@H](C)NC(=O)[C@H](CC(N)=O)NC(=O)[C@H](CC(=O)O)NC(=O)CNC(=O)[C@@H]1CCCN1C(=O)[C@H](Cc1ccc(O)cc1)NC(=O)[C@@H](NC(=O)[C@@H]1CCCN1C(=O)[C@H](CCCCN)NC(=O)[C@H](CC(C)C)NC(=O)[C@@H]1CCCN1C(=O)[C@H](C)N)C(C)C)[C@@H](C)O)C(=O)N[C@@H](CC(N)=O)C(=O)N[C@@H](CCSC)C(=O)N[C@@H](CC(C)C)C(=O)N[C@H](C(=O)N[C@@H](CCCNC(=N)N)C(=O)N[C@@H](CCC(N)=O)C(=O)N[C@@H](CCCNC(=N)N)C(=O)N[C@@H](Cc1ccc(O)cc1)C(N)=O)[C@@H](C)O [SEQ ID NO: 12, [Lys4,Gln34]PP]
- IC50 (human Y1 receptor [1]): > 1000 nM
